Laboratory results taken from patent publication US20200247800A1, “SUBSTITUTED BICYCLIC HETEROCYCLIC COMPOUNDS AS NADPH OXIDASE INHIBITORS” (Glenmark Pharmaceuticals S.A., priority 2017, published 2020).

Molecular target: T1, human NOX4 (Homo sapiens, UniProt Q9NPH5)
T1 construct: expressed in transfected cells; membrane fraction used
T1 sequence (Q9NPH5 1-578): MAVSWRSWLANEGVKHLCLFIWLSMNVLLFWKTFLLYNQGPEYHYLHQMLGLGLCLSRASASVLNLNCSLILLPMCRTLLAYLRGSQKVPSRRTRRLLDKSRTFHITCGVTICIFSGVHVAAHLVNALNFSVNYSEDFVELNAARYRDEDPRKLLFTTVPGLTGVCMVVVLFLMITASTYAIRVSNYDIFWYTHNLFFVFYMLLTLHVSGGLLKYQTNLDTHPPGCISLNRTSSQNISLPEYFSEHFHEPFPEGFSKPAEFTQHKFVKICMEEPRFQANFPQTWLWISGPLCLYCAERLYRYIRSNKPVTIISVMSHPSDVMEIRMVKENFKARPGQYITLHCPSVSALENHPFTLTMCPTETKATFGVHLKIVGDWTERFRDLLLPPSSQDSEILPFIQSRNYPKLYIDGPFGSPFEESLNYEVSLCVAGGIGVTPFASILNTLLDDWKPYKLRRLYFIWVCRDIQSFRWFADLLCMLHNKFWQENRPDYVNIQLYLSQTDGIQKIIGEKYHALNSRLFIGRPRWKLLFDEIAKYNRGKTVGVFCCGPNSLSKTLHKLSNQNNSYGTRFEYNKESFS
T1 sequence (P13498 1-195 partner): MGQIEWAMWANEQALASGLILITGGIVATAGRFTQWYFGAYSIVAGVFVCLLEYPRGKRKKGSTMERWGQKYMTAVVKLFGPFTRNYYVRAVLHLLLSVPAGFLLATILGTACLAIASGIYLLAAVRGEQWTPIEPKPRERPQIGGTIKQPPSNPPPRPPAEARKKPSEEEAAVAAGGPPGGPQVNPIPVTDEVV
Test: Cell free membrane based in vitro NOX4 assay: H2O2 production by membranes expressing human NOX4, measured with Amplex Red
Type: biochemical
Settings: for inhibition at 1 µM: 1.0 μM compound, read-out: Percentage inhibition at 1.0 μM; for inhibition at 10 µM: 10.0 μM compound, read-out: Percentage inhibition at 10.0 μM; for IC50: class symbols
Summary of the method: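 Membranes from HEK cells stably overexpressing human NOX4 were preincubated 20 min with inhibitor in pH 7.4 HEPES buffer containing HRP and Amplex Red, then NADPH was added. H2O2 was followed for 10 min by fluorescence (ex 544/em 590 nm). IC50 from nonlinear regression of % maximal uninhibited response.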

SMILES | inhibition at 1 µM [%] | inhibition at 10 µM [%] | IC50 [nM]
Cc1nn(CCN2CCOCC2)c2[nH]c(-c3cccc(C(F)(F)F)c3F)c(O)c(=O)c12 [Example 153, 6-(2-fluoro-3-(trifluoromethyl)phenyl)-5-hydroxy-3-methyl-1-(2-morpholinoethyl)-1H-pyrazolo[3,4-b]pyridin-4(7H)-one] | 100 | 93 | > 150
CN(C)CCn1nc(C(F)(F)F)c2c(=O)c(O)c(-c3ccccc3Cl)[nH]c21 [Example 154, 6-(2-chlorophenyl)-1-(2-(dimethylamino)ethyl)-5-hydroxy-3-(trifluoromethyl)-1H-pyrazolo[3,4-b]pyridin-4(7H)-one] | 99.6 | 100 | > 150
Cc1nn(CCN2CCN(C)CC2)c2[nH]c(-c3ccccc3Cl)c(O)c(=O)c12 [Example 155, 6-(2-chlorophenyl)-5-hydroxy-3-methyl-1-(2-(4-methylpiperazin-1-yl)ethyl)-1H-pyrazolo[3,4-b]pyridin-4(7H)-one] | 100 | 93.3 | < 50
CCc1nn(CCN2CCOCC2)c2[nH]c(-c3c(F)cccc3F)c(O)c(=O)c12 [Example 156, 6-(2,6-difluorophenyl)-3-ethyl-5-hydroxy-1-(2-morpholinoethyl)-1H-pyrazolo[3,4-b]pyridin-4(7H)-one] | 97.4 | 100 | < 50
CCc1nn(CCn2cccn2)c2[nH]c(-c3ccccc3Cl)c(O)c(=O)c12 [Example 157, 1-(2-(1H-pyrazol-1-yl)ethyl)-6-(2-chlorophenyl)-3-ethyl-5-hydroxy-1H-pyrazolo[3,4-b]pyridin-4(7H)-one] | 95.2 | 98.6 | 50 to 100
CCc1nn(CCn2cccn2)c2[nH]c(-c3c(F)cccc3F)c(O)c(=O)c12 [Example 158, 1-(2-(1H-pyrazol-1-yl)ethyl)-6-(2,6-difluorophenyl)-3-ethyl-5-hydroxy-1H-pyrazolo[3,4-b]pyridin-4(7H)-one] | 100 | 100 | < 50
CCc1nn(C)c2[nH]c(-c3ccc(F)c(C(F)(F)F)c3)c(O)c(=O)c12 [Example 159, 3-Ethyl-6-(4-fluoro-3-(trifluoromethyl)phenyl)-5-hydroxy-1-methyl-1H-pyrazolo[3,4-b]pyridine-4(7H)-one] | 71.9 | – | > 150
CCc1nn(C)c2[nH]c(-c3cccc(C(F)(F)F)c3F)c(O)c(=O)c12 [Example 160, 3-Ethyl-6-(2-fluoro-3-(trifluoromethyl)phenyl)-5-hydroxy-1-methyl-1H-pyrazolo[3,4-b]pyridine-4(7H)-one] | 80.7 | 68.9 | > 150
CCc1nn(C)c2[nH]c(-c3ccc(F)cc3F)c(O)c(=O)c12 [Example 161, 6-(2,4-Difluorophenyl)-3-ethyl-5-hydroxy-1-methyl-1H-pyrazolo[3,4-b]pyridin-4(7H)-one] | 71.6 | – | > 150
CCc1nn(C)c2[nH]c(-c3cc(F)cc(F)c3)c(O)c(=O)c12 [Example 162, 6-(3,5-Difluorophenyl)-3-ethyl-5-hydroxy-1-methyl-1H-pyrazolo[3,4-b]pyridine-4(7H)-one] | 74.8 | – | > 150
CCc1nn(C)c2[nH]c(-c3cc(F)ccc3F)c(O)c(=O)c12 [Example 163, 6-(2,5-Difluorophenyl)-3-ethyl-5-hydroxy-1-methyl-1H-pyrazolo[3,4-b]pyridine-4(7H)-one] | 72.8 | – | > 150
CCc1nn(CCN2CCOCC2)c2[nH]c(-c3cccc(C(F)(F)F)c3F)c(O)c(=O)c12 [Example 164, 3-Ethyl-6-(2-fluoro-3-(trifluoromethyl)phenyl)-5-hydroxy-1-(2-morpholinoethyl)-1H-pyrazolo[3,4-b]pyridin-4(7H)-one] | – | – | > 150
CCc1nn(CCN2CCN(C)CC2)c2[nH]c(-c3ccccc3Cl)c(O)c(=O)c12 [Example 165, 6-(2-Chlorophenyl)-3-ethyl-5-hydroxy-1-(2-(4-methylpiperazin-1-yl)ethyl)-1H-pyrazolo[3,4-b]pyridine-4(7H)-one] | 99.9 | 80.1 | < 50
CCc1nn(CCN2CCN(C)CC2)c2[nH]c(-c3c(F)cccc3F)c(O)c(=O)c12 [Example 166, 6-(2,6-Difluorophenyl)-3-ethyl-5-hydroxy-1-(2-(4-methylpiperazin-1-yl)ethyl)-1H-pyrazolo[3,4-b]pyridine-4(7H)-one] | 96.4 | 95.5 | < 50

Now from value to compound:

inhibition at 1 µM [%] | inhibition at 10 µM [%] | IC50 [nM] | SMILES
86 | 71.8 | 50 to 100 | CCc1nn(CCN2CCOCC2=O)c2[nH]c(-c3ccccc3Cl)c(O)c(=O)c12 [Example 167, 4-(2-(6-(2-Chlorophenyl)-3-ethyl-5-hydroxy-4-oxo-4,7-dihydro-1H-pyrazolo[3,4-b]pyridin-1-yl)ethyl)morpholin-3-one]
94.9 | 93.5 | 50 to 100 | CCc1nn(CCN2CCOCC2=O)c2[nH]c(-c3c(F)cccc3F)c(O)c(=O)c12 [Example 168, 4-(2-(6-(2,6-Difluorophenyl)-3-ethyl-5-hydroxy-4-oxo-4,7-dihydro-1H-pyrazolo[3,4-b]pyridin-1-yl)ethyl)morpholin-3-one]
83.7 | – | 50 to 100 | Cc1nn(CCN2CCN(C)CC2)c2[nH]c(-c3c(F)cccc3F)c(O)c(=O)c12 [Example 169, 6-(2,6-Difluorophenyl)-5-hydroxy-3-methyl-1-(2-(4-methylpiperazin-1-yl)ethyl)-1H-pyrazolo[3,4-b]pyridin-4(7H)-one]
74.4 | – | > 150 | CCCn1nc(CC)c2c(=O)c(O)c(-c3ccc(F)cc3F)[nH]c21 [Example 170, 6-(2,4-Difluorophenyl)-3-ethyl-5-hydroxy-1-propyl-1H-pyrazolo[3,4-b]pyridin-4(7H)-one]
80.9 | – | > 150 | CCc1nn(CCN2CCN(CC)CC2)c2[nH]c(-c3c(F)cccc3F)c(O)c(=O)c12 [Example 172, 6-(2,6-Difluorophenyl)-3-ethyl-1-(2-(4-ethylpiperazin-1-yl)ethyl)-5-hydroxy-1H-pyrazolo[3,4-b]pyridin-4(7H)-one]
76.1 | 69.7 | > 150 | CCc1nn(CCN2CCN(CC)CC2)c2[nH]c(-c3ccccc3Cl)c(O)c(=O)c12 [Example 173, 6-(2-Chlorophenyl)-3-ethyl-1-(2-(4-ethylpiperazin-1-yl)ethyl)-5-hydroxy-1H-pyrazolo[3,4-b]pyridin-4(7H)-one]
85.6 | – | 100 to 150 | CCc1nn(CCCN2CCOCC2)c2[nH]c(-c3cccc(C(F)(F)F)c3F)c(O)c(=O)c12 [Example 174, 3-Ethyl-6-(2-fluoro-3-(trifluoromethyl)phenyl)-5-hydroxy-1-(3-morpholinopropyl)-1H-pyrazolo[3,4-b]pyridin-4(7H)-one]
84 | 81.3 | 100 to 150 | CCc1nn(CCCN2CCOCC2)c2[nH]c(-c3c(F)cccc3F)c(O)c(=O)c12 [Example 175, 6-(2,6-Difluorophenyl)-3-ethyl-5-hydroxy-1-(3-morpholinopropyl)-1H-pyrazolo[3,4-b]pyridin-4(7H)-one]
81.3 | – | > 150 | CCc1nn(CCCN2CCOCC2)c2[nH]c(-c3ccc(F)cc3F)c(O)c(=O)c12 [Example 176, 6-(2,4-Difluorophenyl)-3-ethyl-5-hydroxy-1-(3-morpholinopropyl)-1H-pyrazolo[3,4-b]pyridin-4(7H)-one]
68.6 | 50.1 | > 150 | Cc1nn(CCN2CCNCC2)c2[nH]c(-c3ccccc3Cl)c(O)c(=O)c12 [Example 177, 6-(2-Chlorophenyl)-5-hydroxy-3-methyl-1-(2-(piperazin-1-yl)ethyl)-1H-pyrazolo[3,4-b]pyridin-4(7H)-one]
89 | – | > 150 | Cc1nn(CCN2CCN(C)CC2)c2[nH]c(-c3cccc(C(F)(F)F)c3F)c(O)c(=O)c12 [Example 178, 6-(2-fluoro-3-(trifluoromethyl)phenyl)-5-hydroxy-3-methyl-1-(2-(4-methylpiperazin-1-yl)ethyl)-1H-pyrazolo[3,4-b]pyridin-4(7H)-one]
92.3 | – | 100 to 150 | CCc1nn(CCN2CCN(C)CC2)c2[nH]c(-c3cccc(C(F)(F)F)c3F)c(O)c(=O)c12 [Example 179, 3-Ethyl-6-(2-fluoro-3-(trifluoromethyl)phenyl)-5-hydroxy-1-(2-(4-methylpiperazin-1-yl)ethyl)-1H-pyrazolo[3,4-b]pyridin-4(7H)-one]
